Among the data in patent US8492383B2 (Jewish General Hospital, priority 2002, dated 2013) are LD50 values, retold here.

The subject of assay [1] is lymphocytes from CLL patients. Put plainly: MTT cytotoxic assay, lymphocytes from CLL patients. It counts as cell-based, human. The settings on record: drug alone. (In general: Tetrazolium dyes change colour on reduction, which living cells bring about.)
A further assay concerns I83 cell line. To be noted: drug alone, MTT 72 hours.

“And” between values parts separate entries of the source, which are not always exact repeats. Identical values can stand only once.

For the compound `O=C(O)CCCc1ccc(N(CCCl)CCCl)cc1` [CLB, chlorambucil], the LD50 in assay [1] (CLL patient T^1 (previously treated with CLB)) worked out at 9.29 µM; in assay [1] (CLL patient T^2 (previously treated with CLB)), 23.1 µM; in assay [1] (CLL patient T^3 (previously treated with CLB)) it was 5.56 µM; in assay [1] (CLL patient T^4 (previously treated with CLB)), 79.7 µM; in assay [1] (CLL patient T^5 (previously treated with CLB)), 49.2 µM; in assay [1] (CLL patient U^1 (untreated)) it was 14.6 µM. The LD50 in assay [1] (CLL patient U^2 (untreated)) turned out to be 28.49 µM; in assay [1] (CLL patient U^3 (untreated)), 20.02 µM; in assay [1] (CLL patient U^4 (untreated)) it was 54.2 µM; in assay [1] (CLL patient U^5 (untreated)), 12.27 µM; in assay [1] (CLL patient U^6 (untreated)), 18.08 µM; in assay [1] (CLL patient U^7 (untreated)), 7.84 µM. Also, the LD50 in the assay with I83 cell line was 40.66 µM and 40.66 ± 2.80 µM.
